The record followed here is ChEMBL document CHEMBL4665654, “Design, synthesis and evaluation of antiproliferative activity of fluorinated betulinic acid” (Bioorg Med Chem, 2019).

The source made the active and inactive calls. No cut-off for these calls is given here.

Series [1] deals with T1, DNA topoisomerase 1 (Homo sapiens) (UniProt P11387).
T1 sequence (whole entry): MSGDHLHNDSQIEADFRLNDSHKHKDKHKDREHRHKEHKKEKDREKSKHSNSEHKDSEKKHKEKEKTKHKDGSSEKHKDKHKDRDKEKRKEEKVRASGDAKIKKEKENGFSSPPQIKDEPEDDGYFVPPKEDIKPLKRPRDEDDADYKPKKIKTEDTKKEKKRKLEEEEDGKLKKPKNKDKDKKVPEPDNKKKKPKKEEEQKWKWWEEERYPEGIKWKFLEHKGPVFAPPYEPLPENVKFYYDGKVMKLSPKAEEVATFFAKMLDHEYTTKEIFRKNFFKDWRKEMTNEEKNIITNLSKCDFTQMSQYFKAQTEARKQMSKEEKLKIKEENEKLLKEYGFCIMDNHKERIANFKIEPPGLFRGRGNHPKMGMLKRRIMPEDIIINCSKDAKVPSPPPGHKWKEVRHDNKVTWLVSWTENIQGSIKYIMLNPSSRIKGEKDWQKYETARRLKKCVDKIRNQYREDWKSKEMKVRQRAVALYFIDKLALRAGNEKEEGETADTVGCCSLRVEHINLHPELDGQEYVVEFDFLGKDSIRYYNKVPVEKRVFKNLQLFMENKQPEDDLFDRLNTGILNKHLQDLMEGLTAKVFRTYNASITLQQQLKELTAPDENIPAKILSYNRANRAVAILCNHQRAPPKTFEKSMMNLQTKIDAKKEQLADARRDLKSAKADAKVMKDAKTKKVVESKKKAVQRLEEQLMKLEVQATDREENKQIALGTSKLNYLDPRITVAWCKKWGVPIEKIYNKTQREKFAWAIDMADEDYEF
The series can be described thus: Inhibition of recombinant human topoisomerase 1 assessed as decrease in relaxation/nicking of supercoiled DNA using supercoiled DNA as substrate at 10 uM after 1 hr by ethidium bromide staining based agarose gel electrophoresis analysis.

Series [2] relates to MDA-MB-231. The series can be described thus: Antiproliferative activity against human MDA-MB-231 cells assessed as cell growth inhibition after 72 hrs by sulforhodamine B assay. The format is functional, cell-based. The conditions noted are these: MDA-MB-231, 72 h. In general terms: Sulforhodamine B stains cellular protein and so reports cell mass.
Series [3] in a line: Antiproliferative activity against human KB-VIN cells assessed as cell growth inhibition after 72 hrs by sulforhodamine B assay. The format is functional, cell-based. The conditions noted are these: KBVIN.
The target of series [4] is T1, DNA topoisomerase 1 (Homo sapiens). As to the kind of experiment: Inhibition of topoisomerase 1 in human MCF7 cells nuclear extract assessed as decrease in relaxation/nicking of supercoiled DNA using supercoiled DNA as substrate at 40 uM after 1 hr by ethidium bromide staining based agarose gel electrophoresis analysis. It is filed as subcellular. The conditions noted are these: Nucleus.

The subject of series [5] is KB. The series can be described thus: Antiproliferative activity against human KB cells assessed as cell growth inhibition after 72 hrs by sulforhodamine B assay. It is filed as functional, cell-based.
For series [6], the system named is MCF7. As to the kind of experiment: Induction of apoptosis in human MCF7 cells at 40 uM incubated for 24 to 72 hrs by Annexin V-FITC/propidium iodide staining-based flow cytometric analysis. The format is functional, cell-based. To be noted: time hrs 24-72. A general note: Flow cytometry measures light scatter and fluorescence of single cells or particles in a stream.

Series [7] has as its target DNA topoisomerase 2-alpha (Homo sapiens) (UniProt P11388). The series can be described thus: Inhibition of topoisomerase-2alpha in human MCF7 cells nuclear extract assessed as decrease in relaxation/nicking of kinetoplast DNA using kDNA as substrate at 40 uM after 15 mins by ethidium bromide staining based agarose gel electrophoresis analysis. It is filed as subcellular. The conditions noted are these: Nucleus.

Series [8] shares this target. As to the kind of experiment: Inhibition of recombinant human topoisomerase-2alpha assessed as decrease in relaxation/nicking of kinetoplast DNA using kDNA as substrate at 100 uM after 15 mins by ethidium bromide staining based agarose gel electrophoresis analysis.
Series [9] concerns the target T1, DNA topoisomerase 1 (Homo sapiens). As to the kind of experiment: Inhibition of recombinant human topoisomerase 1 assessed as decrease in relaxation/nicking of supercoiled DNA using supercoiled DNA as substrate at 30 uM after 1 hr by ethidium bromide staining based agarose gel electrophoresis analysis.
Series [10] has as its system MCF7. As to the kind of experiment: Inhibition of colony formation in human MCF7 cells at 10 to 40 uM of compound exposure followed by compound washout and subsequent incubation for 3 weeks by crystal violet staining based assay. The format is functional, cell-based. The conditions noted are these: dose microM 10-40.
The test system of series [11] is A549. The series can be described thus: Antiproliferative activity against human A549 cells assessed as cell growth inhibition after 72 hrs by sulforhodamine B assay. The format is functional, cell-based. The conditions noted are these: A549, 72 h.
Series [12] relates to MCF7. As to the kind of experiment: Antiproliferative activity against human MCF7 cells assessed as cell growth inhibition after 72 hrs by sulforhodamine B assay. It is filed as functional, cell-based. To be noted: MCF7, 72 h.
For series [13], the system named is MCF-10A. As to the kind of experiment: Cytotoxicity against human MCF-10A cells assessed as cell viability at 10 uM after 72 hrs by MTT assay. The format is cell-based.
For series [14], the system named is MCF7. As to the kind of experiment: Induction of apoptosis in human MCF7 cells assessed as increase in cleaved caspase-9 protein expression at 20 to 40 uM incubated for 72 hrs by Western blot analysis. It is filed as functional, cell-based. The conditions noted are these: dose microM 20-40, time 72.0 hrs. A general note: In western blotting, separated proteins are transferred to a membrane and probed.

Series [15] can be described thus: Cytotoxicity against human MCF-10A cells assessed as cell viability at 30 uM after 72 hrs by MTT assay. It is filed as cell-based. The conditions noted are these: read-out: Activity.
The test system of series [16] is MCF7. As to the kind of experiment: Induction of apoptosis in human MCF7 cells incubated for 24 to 72 hrs by Annexin V-FITC/propidium iodide staining-based flow cytometric analysis. The format is functional, cell-based. The conditions noted are these: dose microM 20-40, time hrs 24-72.
For series [17], the target named is T1, DNA topoisomerase 1 (Homo sapiens). As to the kind of experiment: Inhibition of recombinant human topoisomerase 1 assessed as decrease in relaxation/nicking of supercoiled DNA using supercoiled DNA as substrate at 3 uM after 1 hr by ethidium bromide staining based agarose gel electrophoresis analysis.
Series [18] has as its system MCF7. The series can be described thus: Induction of apoptosis in human MCF7 cells assessed as increase in cleaved caspase-7 protein expression at 20 to 40 uM incubated for 72 hrs by Western blot analysis. It is filed as functional, cell-based. The conditions noted are these: dose microM 20-40, time 72.0 hrs.
In series [19] the test system is MCF7. The series can be described thus: Induction of apoptosis in human MCF7 cells assessed as increase in cleaved PARP protein expression at 20 to 40 uM incubated for 72 hrs by Western blot analysis. The format is functional, cell-based. To be noted: dose microM 20-40, time 72.0 hrs.
In series [20] the test system is MCF7. The series can be described thus: Modulation of DNA repair related gene expression in human MCF7 cells at 40 uM after 24 hrs by cDNA microarray analysis. It is filed as functional, cell-based.
Series [21] has as its system MCF7. As to the kind of experiment: Induction of apoptosis in human MCF7 cells at 20 to 40 uM by Annexin V-FITC/propidium iodide staining-based flow cytometric analysis. To be noted: dose microM 20-40, time hrs 24-72, TDE = time-dependent effect. The format is functional, cell-based.
The target of series [22] is DNA topoisomerase 2-alpha (Homo sapiens) (UniProt P11388). The series can be described thus: Inhibition of recombinant human topoisomerase-2alpha assessed as decrease in relaxation/nicking of kinetoplast DNA using kDNA as substrate after 15 mins by ethidium bromide staining based agarose gel electrophoresis analysis. To be noted: dose microM 30-100, time 15.0 min.
Sequence of DNA topoisomerase 2-alpha (Homo sapiens) (P11388 whole entry): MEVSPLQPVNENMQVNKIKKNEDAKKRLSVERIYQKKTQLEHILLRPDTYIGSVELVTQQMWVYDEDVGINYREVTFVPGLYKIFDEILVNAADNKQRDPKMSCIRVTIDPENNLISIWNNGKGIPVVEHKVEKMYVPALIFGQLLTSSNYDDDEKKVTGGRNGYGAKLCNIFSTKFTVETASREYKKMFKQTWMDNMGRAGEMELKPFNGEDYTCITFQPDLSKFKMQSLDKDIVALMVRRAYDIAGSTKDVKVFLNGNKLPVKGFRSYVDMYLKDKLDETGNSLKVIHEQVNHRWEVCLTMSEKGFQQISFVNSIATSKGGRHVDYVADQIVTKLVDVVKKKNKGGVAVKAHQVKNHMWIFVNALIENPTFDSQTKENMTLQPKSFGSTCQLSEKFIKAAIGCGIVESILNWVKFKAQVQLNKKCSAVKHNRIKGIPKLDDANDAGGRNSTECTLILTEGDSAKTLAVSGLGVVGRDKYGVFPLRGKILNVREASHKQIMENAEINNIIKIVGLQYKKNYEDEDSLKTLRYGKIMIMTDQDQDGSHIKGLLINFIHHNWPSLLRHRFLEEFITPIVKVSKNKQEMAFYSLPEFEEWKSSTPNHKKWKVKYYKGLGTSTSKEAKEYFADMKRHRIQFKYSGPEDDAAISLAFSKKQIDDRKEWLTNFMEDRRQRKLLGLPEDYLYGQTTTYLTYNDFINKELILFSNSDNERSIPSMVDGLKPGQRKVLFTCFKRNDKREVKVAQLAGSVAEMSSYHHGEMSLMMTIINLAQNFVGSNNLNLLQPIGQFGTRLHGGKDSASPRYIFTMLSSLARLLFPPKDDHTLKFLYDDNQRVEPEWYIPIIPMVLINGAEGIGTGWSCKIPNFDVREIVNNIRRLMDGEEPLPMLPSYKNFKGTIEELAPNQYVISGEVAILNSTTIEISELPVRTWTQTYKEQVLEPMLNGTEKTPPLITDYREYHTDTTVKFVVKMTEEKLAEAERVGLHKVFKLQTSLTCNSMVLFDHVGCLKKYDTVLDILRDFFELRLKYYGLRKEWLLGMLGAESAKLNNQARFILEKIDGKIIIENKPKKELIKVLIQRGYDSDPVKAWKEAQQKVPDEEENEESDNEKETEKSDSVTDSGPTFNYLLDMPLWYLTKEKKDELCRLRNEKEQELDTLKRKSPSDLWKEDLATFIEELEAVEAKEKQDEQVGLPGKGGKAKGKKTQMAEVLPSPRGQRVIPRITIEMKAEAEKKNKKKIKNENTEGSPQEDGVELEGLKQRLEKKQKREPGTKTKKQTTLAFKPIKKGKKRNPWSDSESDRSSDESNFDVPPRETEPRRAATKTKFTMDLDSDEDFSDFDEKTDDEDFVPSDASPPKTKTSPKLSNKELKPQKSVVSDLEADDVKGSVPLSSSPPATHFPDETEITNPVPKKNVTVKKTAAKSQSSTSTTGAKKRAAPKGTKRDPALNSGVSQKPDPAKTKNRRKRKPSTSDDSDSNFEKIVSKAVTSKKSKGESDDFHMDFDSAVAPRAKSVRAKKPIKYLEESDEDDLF
Series [23] has the same target. As to the kind of experiment: Inhibition of recombinant human topoisomerase-2alpha assessed as decrease in relaxation/nicking of kinetoplast DNA using kDNA as substrate at 30 uM after 15 mins by ethidium bromide staining based agarose gel electrophoresis analysis.
Series [24] relates to MCF7. The series can be described thus: Modulation of DNA replication associated gene expression in human MCF7 cells at 40 uM after 24 hrs by cDNA microarray analysis. The format is functional, cell-based.
Series [25] has as its system MCF7. The series can be described thus: Antiproliferative activity against human MCF7 cells assessed as cell killing at 30 uM after 72 hrs by MTT assay. It is filed as functional.
In series [26] the target is T1, DNA topoisomerase 1 (Homo sapiens). The series can be described thus: Inhibition of recombinant human topoisomerase 1 assessed as decrease in relaxation/nicking of supercoiled DNA using supercoiled DNA as substrate after 1 hr by ethidium bromide staining based agarose gel electrophoresis analysis. The conditions noted are these: dose microM 1-30, time 1.0 hrs.

In general, IC50 refers to the concentration that inhibits the measured activity by half.

In the case of `C=C(C)[C@@H]1CC[C@]2(C(=O)O)CC[C@]3(C)[C@H](CC[C@@H]4[C@@]5(C)CC[C@H](O)C(C)(C)[C@@H]5CC[C@]43C)[C@@H]12` [BETULINIC ACID], the inhibition result in [1], in [4], in series [7] and in series [8] was “inactive” each time. Further, the half-inhibitory concentration (IC50) in series [2] was over 40 µM; in series [3], 30.7 µM; in [5] it was 28.7 µM; in series [11], 29.5 µM; in series [12], over 40 µM. In series [6], the result was Active. Besides, the inhibition result in series [9] and in series [10] was “Active” each time.
In the case of `C=C(C)[C@@H]1CC[C@]2(C(=O)O)CC[C@]3(C)[C@H](CC[C@@H]4[C@@]5(C)CC(F)[C@H](O)C(C)(C)[C@@H]5CC[C@]43C)[C@@H]12` (mixture of isomers), the inhibition result in series [1], in series [17], in series [4], in [7], in [10] and in series [23] was “Active” throughout. Besides, the IC50 in [2] was determined as 11 µM; in [3] it was 7 µM; in [5], 6.5 µM; in series [11], 6.1 µM; in [12] it was 9.2 µM. In addition, the Activity result in [13] is “Non-Toxic”; in series [16], “Dose-dependent effect”; in [21], “Tde”; in [25], over 80%. The result in [14], in series [18], in series [19], in [20] and in series [24] was Active. Besides, the viability at 72 h, 30 µM in series [15] came out at 80%. For the same compound, the inhibition result in series [22] and in [26] was “Dose-dependent effect” in each case.
